Data published in patent EP4001279A1, “NOVEL SPIROPYRROLIDINE DERIVED ANTIVIRAL AGENTS” (Enanta Pharmaceuticals, Inc., priority 2020, dated 2022).

Tested on: 229E human corona virus (hCoV)
Experiment: 229E live virus assay (CPE, ATPlite readout in MRC-5 cells)
Format: cell-based, hCoV-229E
Conditions: Human coronavirus 229E, MRC5, hCoV-229E live virus, MOI 0.05, ATPlite readout, run in duplicate

First: CCN(C(=O)OCc1ccccc1)[C@@H](CC(C)C)C(=O)N1C[C@]2(C[C@H]1C#N)C(=O)Nc1ccccc12 [Compound 90]
Second: CC(C)C[C@@H](C(=O)N1C[C@]2(C[C@H]1C#N)C(=O)Nc1ccccc12)N(C)C(=O)OCc1ccccc1 [Example 39]
The EC50 of the first is lower: 100 to 1000 nM for the first, greater than 1000 nM for the second.

`CC(C)C[C@H](NC(=O)OCc1ccccc1)C(=O)N1C[C@]2(C[C@H]1C#N)C(=O)Nc1ccccc12` [Example 1] and `CC(C)(C)C[C@H](NC(=O)OCc1ccccc1)C(=O)N1C[C@]2(C[C@H]1C#N)C(=O)Nc1ccccc12` [Example 5] fall in the same range of EC50: 100 to 1000 nM for the first, 100 to 1000 nM for the second.

`N#C[C@@H]1C[C@@]2(CN1C(=O)[C@H](CC1CCC1)NC(=O)OCc1ccccc1)C(=O)Nc1ccccc12` [Example 2] and `N#C[C@@H]1C[C@@]2(CN1C(=O)[C@H](CC1CC1)NC(=O)OCc1ccccc1)C(=O)Nc1ccccc12` [Example 4] fall in the same range of EC50: 100 to 1000 nM for the first, 100 to 1000 nM for the second.

First: CC(C)(C)[C@H](NC(=O)OCc1ccccc1)C(=O)N1C[C@]2(C[C@H]1C#N)C(=O)Nc1ccccc12 [Example 3]
Second: CN(C(=O)OCc1ccccc1)[C@@H](CC(C)(C)C)C(=O)N1C[C@]2(C[C@H]1C#N)C(=O)Nc1ccccc12 [Example 40]
The EC50 of the first is higher: greater than 1000 nM for the first, 100 to 1000 nM for the second. The second is the more potent here.

First: COc1cccc2[nH]c(C(=O)N[C@@H](CC(C)C)C(=O)N3C[C@]4(C[C@H]3C#N)C(=O)Nc3ccccc34)cc12 [Example 11]
Second: COc1cccc2[nH]c(C(=O)N[C@H](CC(C)C)C(=O)N3C[C@]4(C[C@H]3C#N)C(=O)Nc3ccccc34)cc12 [Example 12]
The EC50 of the first is lower: less than 100 nM for the first, 100 to 1000 nM for the second. The first is the more potent here.

`COc1cccc2[nH]c(C(=O)N[C@@H](CC3CCCCC3)C(=O)N3C[C@]4(C[C@H]3C#N)C(=O)Nc3ccccc34)cc12` [Example 13] and `COc1cccc2[nH]c(C(=O)N[C@H](CC3CCCCC3)C(=O)N3C[C@]4(C[C@H]3C#N)C(=O)Nc3ccccc34)cc12` [Example 14] cannot be ordered by EC50: less than 100 nM for the first, less than 100 nM for the second.

Compared with `COc1cccc2[nH]c(C(=O)N[C@@H](CC(C)(C)C)C(=O)N3C[C@]4(C[C@H]3C#N)C(=O)Nc3ccccc34)cc12` [Example 15], `COc1cccc2[nH]c(C(=O)N[C@H](CC(C)(C)C)C(=O)N3C[C@]4(C[C@H]3C#N)C(=O)Nc3ccccc34)cc12` [Example 16] is higher in EC50: less than 100 nM for the first, 100 to 1000 nM for the second. The first is the more potent here.

`COc1cccc2[nH]c(C(=O)N[C@@H](CC3CCC3)C(=O)N3C[C@]4(C[C@H]3C#N)C(=O)Nc3ccccc34)cc12` [Example 17] and `COc1cccc2[nH]c(C(=O)N[C@@H](CC3CC3)C(=O)N3C[C@]4(C[C@H]3C#N)C(=O)Nc3ccccc34)cc12` [Example 19] cannot be ordered by EC50: less than 100 nM for the first, less than 100 nM for the second.

Compared with `CC(C)(C)[C@H](NC(=O)c1cc2c(F)cccc2[nH]1)C(=O)N1C[C@]2(C[C@H]1C#N)C(=O)Nc1ccccc12` [Example 18], `CC(C)(C)C[C@H](NC(=O)c1cc2c(F)cccc2[nH]1)C(=O)N1C[C@]2(C[C@H]1C#N)C(=O)Nc1ccccc12` [Example 21] is lower in EC50: 100 to 1000 nM for the first, less than 100 nM for the second.

`CC(C)(C)C[C@H](NC(=O)c1cc2c(F)c(F)ccc2[nH]1)C(=O)N1C[C@]2(C[C@H]1C#N)C(=O)Nc1ccccc12` [Example 20] and `CN(C(=O)c1cc2c(F)c(F)ccc2[nH]1)[C@@H](CC(C)(C)C)C(=O)N1C[C@]2(C[C@H]1C#N)C(=O)Nc1ccccc12` [Example 86] cannot be ordered by EC50: less than 100 nM for the first, less than 100 nM for the second.

`COc1cccc2[nH]c(C(=O)NC(CC(C)C)C(=O)N3CC4(CC3C=O)C(=O)Nc3ccccc34)cc12` (stereo not shown) [Example 23] and `CC(C)C[C@H](NC(=O)c1cc2c(F)cccc2[nH]1)C(=O)N1C[C@]2(C[C@H]1C=O)C(=O)Nc1ccccc12` [Example 25] cannot be ordered by EC50: less than 100 nM for the first, less than 100 nM for the second.

Compared with `CC(C)C[C@@H](C(=O)N1C[C@]2(C[C@H]1C=O)C(=O)Nc1ccccc12)N(C)C(=O)OCc1ccccc1` [Example 24], `CN(C(=O)OCc1ccccc1)[C@@H](CC1CCC1)C(=O)N1C[C@]2(C[C@H]1C#N)C(=O)Nc1ccccc12` [Example 89] is higher in EC50: less than 100 nM for the first, 100 to 1000 nM for the second.

`COc1cc(C#N)cc2[nH]c(C(=O)N[C@@H](CC(C)C)C(=O)N3C[C@]4(C[C@H]3C#N)C(=O)Nc3ccccc34)cc12` [Example 26] and `CC(C)C[C@H](NC(=O)c1cc2c(F)cccc2[nH]1)C(=O)N1C[C@]2(C[C@H]1C#N)C(=O)Nc1ccccc12` [Example 27] cannot be ordered by EC50: less than 100 nM for the first, less than 100 nM for the second.

`CC(C)C[C@H](NC(=O)c1cc2c(F)cccc2[nH]1)C(=O)N1C[C@]2(C[C@H]1C#N)C(=O)Nc1c(F)cccc12` [Example 28] and `CC(C)C[C@@H](C(=O)N1C[C@]2(C[C@H]1C#N)C(=O)Nc1ccccc12)N(C)C(=O)c1cc2c(F)cccc2[nH]1` [Example 44] cannot be ordered by EC50: less than 100 nM for the first, less than 100 nM for the second.

Compared with `COc1cccc2[nH]c(C(=O)N[C@@H](CC(C)C)C(=O)N3C[C@]4(C[C@H]3C(O)S(=O)(=O)O)C(=O)Nc3ccccc34)cc12` (stereo partly shown) [Example 29], `COc1cccc2[nH]c(C(=O)N[C@@H](CC(C)C)C(=O)N3C[C@]4(C[C@H]3C(=O)O)C(=O)Nc3ccccc34)cc12` [Example 37] is higher in EC50: less than 100 nM for the first, 100 to 1000 nM for the second.

Compared with `CC(C)C[C@@H](C(=O)N1C[C@]2(C[C@H]1C(O)S(=O)(=O)O)C(=O)Nc1ccccc12)N(C)C(=O)c1cc2c(F)cccc2[nH]1` (stereo partly shown) [Example 30], `CC(C)C[C@@H](C(=O)N1C[C@]2(C[C@H]1C(=O)C(=O)NC1CC1)C(=O)Nc1ccccc12)N(C)C(=O)c1cc2c(F)cccc2[nH]1` [Example 36] is higher in EC50: less than 100 nM for the first, 100 to 1000 nM for the second. The first is the more potent here.

Compared with `COc1cccc2[nH]c(C(=O)N[C@@H](CC(C)C)C(=O)N3C[C@]4(C[C@H]3C(=O)C(=O)NC3CC3)C(=O)Nc3ccccc34)cc12` [Example 31], `COc1cccc2[nH]c(C(=O)N[C@@H](CC(C)C)C(=O)N3C[C@]4(C[C@H]3C(=O)C(=O)NC3CCCCC3)C(=O)Nc3ccccc34)cc12` [Example 33] is higher in EC50: 100 to 1000 nM for the first, greater than 1000 nM for the second. The first is the more potent here.

Compared with `COc1cccc2[nH]c(C(=O)N[C@@H](CC(C)C)C(=O)N3C[C@]4(C[C@H]3C(=O)C(=O)NCc3ccccc3)C(=O)Nc3ccccc34)cc12` [Example 32], `COc1cccc2[nH]c(C(=O)N(C)[C@@H](CC(C)C)C(=O)N3C[C@]4(C[C@H]3C(=O)C(=O)NC3CCCCC3)C(=O)Nc3ccccc34)cc12` [Example 34] is higher in EC50: 100 to 1000 nM for the first, greater than 1000 nM for the second. The first is the more potent here.

Compared with `CC(C)C[C@@H](C(=O)N1C[C@]2(C[C@H]1C(=O)C(=O)NC1CCCCC1)C(=O)Nc1ccccc12)N(C)C(=O)c1cc2c(F)cccc2[nH]1` [Example 35], `CC(C)C[C@@H](C(=O)N1C[C@]2(C[C@H]1C#N)C(=O)Nc1ccccc12)N(C)C(=O)c1cc2c(C3CC3)cccc2[nH]1` [Example 45] is lower in EC50: greater than 1000 nM for the first, less than 100 nM for the second.

First: CN(C(=O)OCc1ccccc1)[C@@H](Cc1ccccc1)C(=O)N1C[C@]2(C[C@H]1C#N)C(=O)Nc1ccccc12 [Example 41]
Second: CC(C)C[C@@H](C(=O)N1C[C@]2(C[C@H]1C#N)C(=O)Nc1ccccc12)N(C)C(=O)c1[nH]c2ccccc2c1-c1ccccc1 [Example 48]
The EC50 of the first is higher: greater than 1000 nM for the first, 100 to 1000 nM for the second. The second is the more potent here.

`COc1cccc2[nH]c(C(=O)N(C)[C@@H](CC(C)C)C(=O)N3C[C@]4(C[C@H]3C#N)C(=O)Nc3ccccc34)cc12` [Example 42] and `CC(C)C[C@@H](C(=O)N1C[C@]2(C[C@H]1C#N)C(=O)Nc1ccccc12)N(C)C(=O)c1cc2c(OC(F)F)cccc2[nH]1` [Example 51] cannot be ordered by EC50: less than 100 nM for the first, less than 100 nM for the second.

Going from `CC(C)C[C@@H](C(=O)N1C[C@]2(C[C@H]1C#N)C(=O)Nc1ccccc12)N(C)C(=O)c1sc2cc(F)ccc2c1Cl` [Example 43] to `CC(C)C[C@@H](C(=O)N1C[C@]2(C[C@H]1C#N)C(=O)Nc1ccccc12)N(C)C(=O)c1ccc(F)cc1Cl` [Example 61], the EC50 rises from less than 100 nM to greater than 1000 nM.

`CC(C)C[C@@H](C(=O)N1C[C@]2(C[C@H]1C#N)C(=O)Nc1ccccc12)N(C)C(=O)c1cc2c(F)cc(F)cc2[nH]1` [Example 46] and `CN(C(=O)c1cc2c(F)cc(F)cc2[nH]1)[C@@H](CC(C)(C)C)C(=O)N1C[C@]2(C[C@H]1C#N)C(=O)Nc1ccccc12` [Example 88] cannot be ordered by EC50: less than 100 nM for the first, less than 100 nM for the second.

Compared with `Cc1c(C(=O)N(C)[C@@H](CC(C)C)C(=O)N2C[C@]3(C[C@H]2C#N)C(=O)Nc2ccccc23)[nH]c2cc(F)cc(F)c12` [Example 47], `CC(C)C[C@@H](C(=O)N1C[C@]2(C[C@H]1C#N)C(=O)Nc1ccccc12)N(C)C(=O)c1cc2c(F)cc(F)c(F)c2[nH]1` [Example 52] is lower in EC50: 100 to 1000 nM for the first, less than 100 nM for the second.

`CC(C)C[C@@H](C(=O)N1C[C@]2(C[C@H]1C#N)C(=O)Nc1ccccc12)N(C)C(=O)c1cc2c(OC(F)(F)F)cccc2[nH]1` [Example 49] and `CC(C)C[C@@H](C(=O)N1C[C@]2(C[C@H]1C#N)C(=O)Nc1ccccc12)N(C)C(=O)c1cc2c(Cl)cccc2[nH]1` [Example 65] cannot be ordered by EC50: less than 100 nM for the first, less than 100 nM for the second.

Going from `CC(C)C[C@@H](C(=O)N1C[C@]2(C[C@H]1C#N)C(=O)Nc1ccccc12)N(C)C(=O)c1cc2ccc(F)cc2[nH]1` [Example 50] to `CC(C)C[C@@H](C(=O)N1C[C@]2(C[C@H]1C#N)C(=O)Nc1ccccc12)N(C)C(=O)c1cc(F)ccc1Cl` [Example 62], the EC50 rises from less than 100 nM to greater than 1000 nM.

First: COc1ccc(Cl)c(C(=O)N(C)[C@@H](CC(C)C)C(=O)N2C[C@]3(C[C@H]2C#N)C(=O)Nc2ccccc23)c1 [Example 58]
Second: CC(C)C[C@@H](C(=O)N1C[C@]2(C[C@H]1C#N)C(=O)Nc1ccccc12)N(C)C(=O)c1ccc(F)c(Cl)c1 [Example 63]
The EC50 of the first is lower: 100 to 1000 nM for the first, greater than 1000 nM for the second.

`CC(C)C[C@@H](C(=O)N1C[C@]2(C[C@H]1C#N)C(=O)Nc1ccccc12)N(C)C(=O)c1ncccc1Cl` [Example 59] and `CC(C)C[C@@H](C(=O)N1C[C@]2(C[C@H]1C#N)C(=O)Nc1ccccc12)N(C)C(=O)c1c(Cl)cccc1Cl` [Example 64] cannot be ordered by EC50: greater than 1000 nM for the first, greater than 1000 nM for the second.

First: CC(C)C[C@@H](C(=O)N1C[C@]2(C[C@H]1C#N)C(=O)Nc1ccccc12)N(C)C(=O)c1cncc(C#N)c1 [Example 60]
Second: CC(C)C[C@@H](C(=O)N1C[C@]2(C[C@H]1C#N)C(=O)Nc1ccccc12)N(C)C(=O)c1cc2c(Br)ccc(Cl)c2[nH]1 [Example 66]
The EC50 of the first is higher: 100 to 1000 nM for the first, less than 100 nM for the second.

`CC(C)C[C@@H](C(=O)N1C[C@]2(C[C@H]1C#N)C(=O)Nc1ccccc12)N(C)C(=O)c1cc2c(OC3CC3)cccc2[nH]1` [Example 82] and `COc1cccc2[nH]c(C(=O)N(C)[C@@H](CC(C)(C)C)C(=O)N3C[C@]4(C[C@H]3C#N)C(=O)Nc3ccccc34)cc12` [Example 85] cannot be ordered by EC50: less than 100 nM for the first, less than 100 nM for the second.

`CN(C(=O)c1cc2c(F)cccc2[nH]1)[C@@H](CC(C)(C)C)C(=O)N1C[C@]2(C[C@H]1C#N)C(=O)Nc1ccccc12` [Example 87] showed an EC50 of less than 100 nM.
